Source: patent US6586460B1, “Heteroarotinoids containing urea or thiourea linker” (The Board of Regents for Oklahoma State University, priority 2001, dated 2003)

Key:
[1] = Monitoring of xenograph mice for signs of toxicity; type: in vivo; conditions: 10 mg/kg/day (MTD for t-RA)
Method: Then OVCAR-3 cells in log phase growth were harvested by trypsinization, resuspended in RPMI culture medium, and centrifuged at 3000 rpm for 10 min. The pellets were then resuspended in RPMI culture medium at a concentration of 7×10^6 cells/mL before implantation into mice. Animals were injected with 3.5×10^6 cells into right scapular region with a 24-gauge needle/1 mL tuberculin syringe (Becton Dickinson, Rutherford, N.J.). Twenty four hours after tumor implantation, animals were randomized into four treatment groups of 5 animals each. Retinoids were administered daily p.o. beginning 35 days after tumor implantation with a 20-gauge intragastric feeding tube (Popper & Sons, New Hyde Park, N.Y.), 5 days/week, at doses of 10 mg/kg/day in 0.1 mL of super refined sesame oil (Corda, Inc., Parisppany, N.J.). Tumors were measured with calipers weekly, and tumor volumes were calculated using the formula: volume=length×width×heigth. Animal weights and clinical signs of overall health status and cutaneous toxicities were recorded weekly.

[2] = system: OVCAR-3 cisplatin-resistant ovarian carcinoma cell line; assay: Cisplatin chemosensitization (MTS assay); type: cell-based, human; conditions: 1 μM retinoid 3 days before and 3 days after one hour of cisplatin (40 μM or 1 μg/ml)
Method: The compounds of the present invention also find advantage over the standard retinoids, including retinoic acid and 4-HPR as chemosensitization agents. In another study, ovarian carcinoma cultures, including cisplatin-resistant cultures, were trypsinized and plated in microtiter plates at a concentration of 1000 cells per well. A series of natural and synthetic retinoids, including exemplar heteroarotinoids with the novel three atom linker, at a concentration of 5 μM were added to triplicate wells in the microtiter plates twenty-four hours later. The same volume of DMSO used to administer the compounds were added to the control cultures. After three days of treatment, a range of cisplatin concentrations were added to the wells. After one hours of exposure, the media and retinoid drugs were replenished. Cell survival was quantitated using the MTS assay (Promega). […] Thus, the present invention contemplates the process of sensitizing cells to cisplatin therapy and combined cisplatin and radiation therapy using the inventive heteroarotinoids.
In this regard, the cisplatin resistant OVCAR-3 cell line was pre-treated with a concentration of 1 μM of the indicated retinoids for 3 days, and then exposed to cisplatin at the concentration detected in tumors of treated patients (40 μM or 1 μg/ml). […] After one hour of cisplatin exposure, the cisplatin was removed and the cultures were grown in the presence of 1 μM of the indicated retinoids for an additional 3 days. The number of living cells present was then determined using the MTS (3-(4,5-dimethylthiazol-2-yl)-5-(3-carboxymethoxyphenyl)-2H-tetrazolium inner salt) assay (Promega). In the MTS assay, metabolically active cells reduce the MTS compound to an aqueous soluble formazan resulting in an absorbance that can be measured at 490 nm (Promega Technical Bulletin No.169). The optical density at 490 nm (OD490) of the MTS-treated cultures is then determined and used as a measure of the number of living cells in each well. The percent growth is determined by dividing the OD490 of the treated cultures by the OD490 of the untreated control cultures.

CAOV-3 = assay: Growth inhibition assay (SRB); type: cell-based; conditions: 10 μM, three-day treatment, Table I
Text: (§1) To illustrate the general and useful biological activity of the heteroarotinoids described in this invention, selected compounds were screened for ability to inhibit the growth of three ovarian cancerous cell lines, namely Caov, SKOV, and OVCAR cell lines, three cervical cell lines (Cervix HPV-Wt p53, Cervix HPV-Mut p53, and Cervix HPV-Mut p53), and one vulvar (Vulvar HPV-Mut p53) cell line as shown in Tables I-III. The cell lines and the technology have been previously described [See Journal of Medicinal Chemistry, 1999, Vol. 42, pages 3602-3614 in an article entitled “Synthesis, Structure-Activity Relationships, and RAR γ-Ligand Interactions of Nitrogen Heteroarotinoids” by A. Dhar, S. Liu, J. Klucik, K. D. Berlin, M. M. Madler, S. Lu, R. T. Ivey, D. Zacheis, C. W. Brown, E. C. Nelson, P. J. Birckbichler, and D. M. Benbrook], but the general technique was slightly modified. Cultures of the cancerous cells were plated in volumes of 150 μL in 96-well microtiter plates at concentrations of 2000-4000 cells/well, depending upon the cell line used. Retinoids were added the next day at 4× the concentrations in 50 μL of media resulting in 1, 2, 3, 4, 5, 7, and 10 μM final concentrations of each retinoid. Control cultures were treated with the same volume of DMSO. After 3 days of treatment, the cell density in each well was determined by fixing the cells in trichloroacetic acid followed by staining the cytoplasmic proteins with sulforhoamine B (SRB). After rinsing, the SRB was solubilized in Tris-HCl, and the optical density of each culture was determined with a MR600 microtiter plate reader. Each experiment was performed in triplicate, and the three values of each treatment were averaged. The average OD of the treated cultures was divided by that of the control cultures treated with solvent alone. To determine the percent growth inhibition, this ratio was subtracted from 1 and multiplied by 100. Tables I, II, and III contain representative examples of the inhibition of growth by the inventive heteroarotinoids of the cancerous cell lines investigated at two independent concentrations (1 and 10 μM). As standards for comparison purposes, trans-retinoic acid (t-RA), 9-cis-retinoic acid (9-c-RA), 13-cis-retinoic acid (13-c-RA), and […] (4-HPR) were added in parallel experiments along with the heteroarotinoids and with dimethyl sulfoxide (DMSO) as the solvent. For convenience, the data in Tables II and III are duplicated and ranked according to tumor type.

SiHa = assay: Growth inhibition assay (SRB); type: cell-based; conditions: 10 μM, three-day treatment, Table I
Text: as §1

C-33A = assay: Growth inhibition assay (SRB); type: cell-based; conditions: 10 μM, three-day treatment, Table I
Text: as §1

HT-3 = assay: Growth inhibition assay (SRB); type: cell-based; conditions: 10 μM, three-day treatment, Table I
Text: as §1

SW962 = assay: Growth inhibition assay (SRB); type: cell-based; conditions: 10 μM, three-day treatment, Table I
Text: as §1

SK-OV-3 = assay: Growth inhibition assay (SRB); type: cell-based; conditions: 10 μM, three-day treatment, Table I
Text: as §1

OVCAR-3 = assay: Growth inhibition assay (SRB); type: cell-based, human; conditions: 10 μM, three-day treatment, Table I
Text: as §1

[3] = system: ovarian carcinoma cell line OVCAR-3; assay: Apoptosis in organotypic culture, TUNNEL assay; type: cell-based, human; conditions: 1 μM; for % APOPTOSIS of OVCAR-3 cells: two weeks, organotypic culture, TUNNEL assay; for inducing apoptosis in the OVCAR-3 cell line, comparison in words: Table V
Method: In another experiment, the ovarian carcinoma cell line OVCAR-3 was grown in organotypic culture. After one week, the cultures were treated with 1 μM solution of heteroarotinoids 11, 12, and 13, or with the same volume of DMSO (solvent), for two weeks. Both 9-c-RA and 4-HPR were used as controls. At the end of the time, the cultures were fixed in sectioned, and stained with the TUNNEL assay to detect apoptosing cells. An experienced pathologist quantitated the percent of apoptosing cells by light microscopic examination.

CC1(C)CC(C)(C)c2cc(NC(=S)Nc3ccc([N+](=O)[O-])cc3)ccc2S1 [heteroarotinoid 11]
toxicity to the skin, bones, or liver [1]: did not cause toxicity
chemosensitization to cisplatin (percent growth, FIG. 2) [2]: effective
Percentage growth inhibition, CAOV-3 (Ovarian HPV− Mut p53) (CAOV-3): 80%
Percentage growth inhibition, SiHa (Cervix HPV+ Wt p53) (SiHa): 72%
Percentage growth inhibition, C-33A (Cervix HPV− Mut p53) (C-33A): 87%
Percentage growth inhibition, HT-3 (Cervix HPV− Mut p53) (HT-3): 82%
Percentage growth inhibition, SW962 (Vulva HPV− Mut p53) (SW962): 98%
Percentage growth inhibition, SK-OV-3 (Ovarian HPV− Null p53) (SK-OV-3): 100%
Percentage growth inhibition, OVCAR-3 (Ovarian HPV− Mut p53) (OVCAR-3): 94%
% APOPTOSIS of OVCAR-3 cells [3]: 95%
inducing apoptosis in the OVCAR-3 cell line, comparison in words [3]: as effective as 4-HPR

CCOC(=O)c1ccc(NC(=O)Nc2ccc3c(c2)C(C)(C)CC(C)(C)S3)cc1 [heteroarotinoid 13]
toxicity to the skin, bones, or liver [1]: did not cause toxicity
chemosensitization to cisplatin (percent growth, FIG. 2) [2]: effective
Percentage growth inhibition, CAOV-3 (Ovarian HPV− Mut p53) (CAOV-3): 98%
Percentage growth inhibition, SiHa (Cervix HPV+ Wt p53) (SiHa): 66%
Percentage growth inhibition, C-33A (Cervix HPV− Mut p53) (C-33A): 76%
Percentage growth inhibition, HT-3 (Cervix HPV− Mut p53) (HT-3): 85%
Percentage growth inhibition, SW962 (Vulva HPV− Mut p53) (SW962): 96%
Percentage growth inhibition, SK-OV-3 (Ovarian HPV− Null p53) (SK-OV-3): 94%
Percentage growth inhibition, OVCAR-3 (Ovarian HPV− Mut p53) (OVCAR-3): 77%
% APOPTOSIS of OVCAR-3 cells [3]: 80%
inducing apoptosis in the OVCAR-3 cell line, comparison in words [3]: as effective as 4-HPR
